Patent publication US20060142379A1, “Use of AP-1 activators to treat glaucoma and ocular hypertension” (priority 1999, published 2006)

Experiments:
[1] = system: perfused human ocular anterior segment; experiment: human ocular perfusion organ culture model, aqueous outflow rate; details: for Flow Rate (% of Time 0) (Mean ± SEM, n = 6): t-BHQ 10 μM
Procedure: The study was performed as follows: Human donor eyes less than 24 hours post mortem were used. The globe was sectioned equatorially followed by the removal of vitreous, lens, zonules, iris, and most of the ciliary body. The anterior segment was then mounted on a perfusion dish, perfused with cell culture medium at a constant hydrostatic pressure of 10 mm Hg (Johnson et al., Human trabecular meshwork organ culture: A new method, Invest Ophthalmol Vis Sci., volume 28, pages 945-953 (1987); Erickson-Lamy et al., Outflow facility studies in the perfused human ocular anterior segment, Exp. Eye Res., volume 52, pages 723-731 (1991); and Clark et al., Dexamethasone-induced ocular hypertension in perfusion cultured human eyes, Invest. Ophthalmol. Vis. Sci., volume 36, pages 478-489 (1995)). The flow rate of the perfusate was measured by weighing the reservoir at predetermined periods. After 2 to 4 days of equilibrium period, one eye of each of the donor pair was perfused with the test compound, t-BHQ (10 μM), while the other was perfused with vehicle (control).

[2] = system: AP-1; details: nuclear extracts, 32P-labelled AP-1 oligonucleotide probe; cited from earlier work

## CC(C)(C)c1cc(O)ccc1O [t-BHQ, tert-butylhydroquinone]
[1]; drug-treated eyes, time 0 (basal)
  basal flow rate at time 0: (1) The basal flow rate at time 0 for vehicle-treated eyes was 3.55 ± 1.00 μL/min, and that for drug-treated eyes was 4.09 ± 0.63 μL/min.
[1]; 0 hours (baseline)
  Flow Rate (% of Time 0) (Mean ± SEM, n = 6): 100.0 % of Time 0
[1]; 4 hours after treatment
  Flow Rate (% of Time 0) (Mean ± SEM, n = 6): 105.8 ± 5.4 % of Time 0
[1]; 24 hours after treatment
  Flow Rate (% of Time 0) (Mean ± SEM, n = 6): 102.9 ± 3.9 % of Time 0
[1]; 48 hours after treatment
  Flow Rate (% of Time 0) (Mean ± SEM, n = 6): 105.2 ± 10.1 % of Time 0
[1]; 72 hours after treatment
  Flow Rate (% of Time 0) (Mean ± SEM, n = 6): 111.8 ± 11.8 % of Time 0
[1]; 96 hours after treatment
  Flow Rate (% of Time 0) (Mean ± SEM, n = 6): 120.9 ± 16.4 % of Time 0
[1]; −4 hours (before treatment)
  Flow Rate (% of Time 0) (Mean ± SEM, n = 6): 97.0 ± 4.0 % of Time 0
[2]
  AP-1 DNA binding activity (AP-1 Activator): demonstrated to be AP-1 Activators
